Laboratory results from PMC12856912, “Structure-Guided Semisynthesis of Blasticidin S–Amicetin Chimeras as Selective Ribosome Inhibitors” (Journal of the American Chemical Society, 2026).
≈ marks a conversion by molar mass, not a printed value.

Assays:
[1] = test system: Methicillin resistant S. aureus (MRSA) USA300; assay: Antibacterial MIC assay, serial dilution; format: cell-based, Staphylococcus aureus; conditions: for Selectivity index (CC50/MIC) MRSA USA300: CC50 Vero cells / MIC; for MIC: Staphylococcus aureus, read-out: MIC Methicillin resistant S. aureus (MRSA) USA300
[2] = test system: MRSA NRS384 (USA300); assay: Multi-step resistance selection (serial passage); format: cell-based, Staphylococcus aureus; conditions: 15 days of serial passaging; resistance = 4-fold shift in MIC
Experimental: culture serv ed as an untreated control. The cultures were aerobically maintai ned at 37°C in shaking incubator. At specifi c sampling times, aliquots were collected, resuspended in phosphate-buffered saline (PBS) and distributed to three replicates on tryptic soy agar (TSA). After a 24-hour incubation period at 37°C, the number of colony- forming units (CFUs) was evaluated.
F i g u re S 1. Time kill results against MRSA USA 300 at 5X and 10X MIC. Compound P3 ( 38) is shown as red squares, compound P5( 40) is shown as green tri angles. Vancomycin (inverted purple triangle) is used as a b act ericidal control and linezolid (orange diamond) as a bacteriostatic control with DMSO (blue circles ) as a neg ative control.
Multi-step resistance selection
To assess the ability of M R S A NRS384 (USA300) to develop resistance to P -NM and P-AM, a multi- step serial passage experiment was used, as described previously.4-6 MRSA strain was serially passaged with sub inhibitory concentrations of compounds and control drugs (Rifampicin and linezolid) in 1 5passages over a period of two weeks. Resistance was defined as a 4 -fold shift […]
F i g u re S 2.Multi -step resistance selection for blastimidine P3 ( 38) and blastimidine P5 (40) , rifampicin, and linezolid evaluated against methicillin -resistant S. aureus (MRSA) NRS384 (USA300) for 15days. […]

Structure (SMILES): CNc1ccc(C(=O)Nc2ccn([C@H]3C=C[C@H](NC(=O)C[C@@H](N)CCN(C)C(=N)N)[C@@H](C(=O)NCCc4ccccc4)O3)c(=O)n2)cc1 [Blastimidine P3]
- Selectivity index (CC50/MIC) MRSA USA300 [1]: >8.0
- MIC [1]: 32 µg/mL (≈ 48.6 µM)
- resistance development on serial passaging [2]: did not produce a resistant phenotype

Structure (SMILES): CN(CC[C@H](N)CC(=O)N[C@H]1C=C[C@H](n2ccc(NC(=O)c3ccc(NC(=O)[C@@](C)(N)CO)cc3)nc2=O)O[C@@H]1C(=O)NCCc1ccccc1)C(=N)N [Blastimidine P5]
- Selectivity index (CC50/MIC) MRSA USA300 [1]: >16
- MIC [1]: 16 µg/mL (≈ 21.5 µM)
- resistance development on serial passaging [2]: did not produce a resistant phenotype
